Data set [1] concerns New Zealand White rabbit iliac arteries (balloon injury and stent). Put plainly: Inhibition of restenosis at 28 days in the rabbit iliac stent model. The class given is in vivo. Here is the method: A.2 Inhibition of Restenosis at 28 Days in the Rabbit Iliac Stent Model
A combined angioplasty and stenting procedure is performed in New Zealand White rabbit iliac arteries. Iliac artery balloon injury is performed by inflating a 3.0 x 9.0 mm angioplasty balloon in the mid-portion of the artery followed by “pull-back” of the catheter for 1 balloon length. Balloon injury is repeated 2 times, and a 3.0×12 mm stent is deployed at 6 atm for 30 seconds in the iliac artery. Balloon injury and stent placement is then performed on the contralateral iliac artery in the same manner. A post-stent deployment angiogram is performed. All animals receive oral aspirin 40 mg/day daily as anti-platelet therapy and are fed standard low-cholesterol rabbit chow. Twenty-eight days after stenting, animals are anesthetized and euthanized and the arterial tree is perfused at 100 mmHg with lactated Ringer's for several minutes, then perfused with 10% formalin at 100 mmHg for 15 minutes. The vascular section between the distal aorta and the proximal femoral arteries is excised and cleaned of periadventitial tissue. The stented section of artery is embedded in plastic and sections are taken from the proximal, middle, and distal portions of each stent. All sections are stained with hematoxylin-eosin and Movat pentachrome stains. Computerized planimetry is performed to determine the area of the internal elastic lamina (IEL), external elastic lamina (EEL) and lumen. The neointima and neointimal thickness is measured both at and between the stent struts. The vessel area is measured as the area within the EEL. Data are expressed as mean±SEM. Statistical analysis of the histologic data is accomplished using analysis of variance (ANOVA) due to the fact that two stented arteries are measured per animal with a mean generated per animal. A P<0.05 is considered statistically significant.
A compound of formula I, e.g. 40-O-(2-hydroxyethyl)-rapamycin, is administered orally by gavage at a loading dose of 1.5 mg/kg one day prior to stenting, then dosed at 0.75 mg/kg/day from the day of stenting until day 27 post-stenting. In this model, the treatment with the compounds of formula I results in a marked reduction in the extent of restenotic lesion formation: for example, the treatment with 40-O-(2-hydroxyethyl)-rapamycin produces a significant (P<0.03) reduction in neointimal thickness (40% reduction), neointimal area (24% reduction), and percent arterial stenosis (26% reduction) with a significant 32% increase in lumen area. There is extensive neointimal formation in placebo-treated animals at 28 days, with the lesions consisting of abundant smooth muscle cells in proteoglycan/collagen matrix and apparent full endothelial healing.

Data set [2] has as its system ballooned carotid of Sprague Dawley rats. Put plainly: Inhibition of restenosis at 14 days in the rat carotid stent model (perivascular local delivery). The class given is in vivo, Sprague Dawley rat. The conditions noted are these: administered locally (perivascular, osmotic pump) at 10 to 200 μg/day. Here is the method:
A.3 Inhibition of Restenosis at 14 Days in the Rat Carotid Stent Model
Male Sprague Dawley rats weighing […] are housed individually and allowed to acclimate prior to surgery. All animals receive standard rat chow and water ad libitum. Group size is 12 animals per group.
The drug(s) administration is perivascular. A segment of ballooned carotid is encircled with a 1 cm length of silastic tubing (0.25 inch inside diameter, 0.47 inch outside diameter) to which is attached a catheter which feeds into an osmotic pump containing either compound or vehicle. This delivery system provides continuous, local delivery to the adventitia of the wrapped portion of vessel. Local drug(s) administration ranges between 5 μg and 10 mg, locally per day, depending on the solubility characteristics of the individual compounds. […]
Animals are killed at 14 days post-balloon injury. […] Animals are killed by administration of an overdose of ketamine and rompun, the osmotic pumps are recovered and the volume of remaining content is recorded to ensure that pump failure has not occurred.
Carotid arteries are excised and immersion fixed, then transferred to Ringer's solution. […] The intimal lesion area and the medial area are determined by measurement of the internal elastic lamina, the external elastic lamina and the vessel/lumen interface.

The test system of data set [3] is balloon injured rat carotid arteries. Put plainly: Inhibition of late neointimal lesion formation in the 28 day rat carotid artery balloon injury model. The class given is in vivo. The conditions noted are these: for percent inhibition of neointimal lesion formation: 28 days post-balloon injury. How it is done: A1. Inhibition of Late Neointimal Lesion Formation in the 28 Day Rat Carotid Artery Balloon Injury Model
Compounds of formula I are tested in the following rat model.
Rats are dosed orally with placebo or a compound of formula I. Daily dosing starts 3 days prior to surgery and continues for 31 days. Rat carotid arteries are balloon injured using a method described by Clowes et al. Lab. Invest. 1983;49;208-215. Following sacrifice at 28 days post-balloon injury, carotid arteries are removed and processed for histologic and morphometric evaluation. […] For example for 40-O-(2-hydroxyethyl)-rapamycin administered at 0.5, 1.0, and 2.0 mg/kg, the percent inhibition is similar at all three doses: inhibition is 31% at the lowest dose (0.5 mg/kg) and 39% at the highest dose (2.0 mg/kg). Compounds of formula I, e.g. 40-O-(2-hydroxyethyl)-rapamycin, have the beneficial effect to inhibit lesions at 4 weeks post-ballooning.

Data set [4] is described as follows: Release of 40-O-(2-hydroxyethyl)-rapamycin from coated stents. The class given is physicochemical. The note with it: PBS pH 7.4 or PEG/water 40/60 v/v, 37° C., solutions changed daily; stable = less than 10% of variation of the drug release. Here is the method: Four 2 cm pieces of coated stents as described above are placed into 100 ml of phosphate buffer solution (PBS) having a pH of 7.4. Another 4 pieces from each series are placed into 100 ml polyethylene glycol (PEG)/water solution (40/60 v/v, MW of PEG=400). The stent pieces are incubated at 37° C. in a shaker. The buffer and PEG solutions are changed daily and different assays are performed on the solution to determine the released 40-O-(2-hydroxyethyl)-rapamycin concentrations. Such assays can show a stable release of 40-O-(2-hydroxyethyl)-rapamycin from coated stents for more than 45 days. By the term “stable release of 40-O-(2-hydroxyethyl)-rapamycin” is meant less than 10% of variation of the drug release. Controlled release techniques used by a person skilled in the art allow an unexpected easy adaptation of the required drug release rate. Thus, by selecting appropriate amounts of reactants in the coating mixture it is possible to easily control the bioeffectiveness of the rapamycin or rapamycin derivastive coated stents.

Data set [5] has as its system dialysis patients with indwelling large bore catheter. The data set is described as follows: Prevention or reduction of vascular access dysfunction after insertion of an indwelling catheter into the vein of a patient. The conditions noted are these: daily dose of 0.75 to 20 mg, 3 month treatment, observation period of 6 months. The class given is in vivo. How it is done: A5. Prevention or Reduction of Vascular Access Dysfunction in Association with the Insertion of an Indwelling Catheter into the Vein of a Patient
One hundred fifty prospective dialysis patients, who undergo successful insertion of an indwelling, large bore catheter, into a vein are selected for the study. […] In addition, patients may also be given a calcium antagonist, nitrates and/or anti-platelet agents. These drugs are administered for 3 consecutive months following catheter insertion.

Setting [6] is: oral loading dose 1.5 mg/kg, then 0.75 mg/kg/day to day 27, 28 days after stenting, P<0.03.

Each structure is given as a SMILES string.

For `CO[C@H]1C[C@@H]2CC[C@@H](C)[C@@](O)(O2)C(=O)C(=O)N2CCCC[C@H]2C(=O)O[C@H]([C@H](C)C[C@@H]2CC[C@@H](OCCO)[C@H](OC)C2)CC(=O)[C@H](C)/C=C(\C)[C@@H](O)[C@@H](OC)C(=O)[C@H](C)C[C@H](C)/C=C/C=C/C=C/1C` [40-O-(2-hydroxyethyl)-rapamycin], the “histology of the intima in arterial segments” value in data set [1] (majority of arterial segments, 28 days after stenting) is recorded as “the intima is well healed”. Moreover, the “endothelialization of stented arteries (scanning electron microscopic analysis)” value in data set [1] (n=4 arteries, oral 1.5 mg/kg loading, 0.75 mg/kg/day, 28 days) is reported as 84%. Also, the “increase in lumen area” value in data set [1] (oral loading dose 1.5 mg/kg, then 0.75 mg/kg/day to day 27, 28 days after stenting) is recorded as 32%. For the same molecule, in data set [1] (setting [6]), the “reduction in neointimal area” value is reported as 24%, the “reduction in neointimal thickness” value is on record as 40% and the “reduction in percent arterial stenosis” value is listed as 26%. Further, the “neointimal lesion formation at 14 days post ballooning” value in data set [2] is on record as “reduces neointimal lesion formation”. Also, in data set [3] (0.5 mg/kg oral daily), the “percent inhibition of neointimal lesion formation” value turned out to be 31%. For the same molecule, the “percent inhibition of neointimal lesion formation” value in data set [3] (2.0 mg/kg oral daily) is on record as 39%. Moreover, in data set [3] (oral dose of from 0.5 to 2.0 mg/kg), the “neointimal lesion formation at 28 days following balloon injury” value is given as “significantly reduce neointimal lesion formation”. Also, the “duration of stable release from coated stents” value in data set [4] is on record as “more than 45 days”. The “prevention or reduction of vascular access dysfunction after catheter insertion” value in data set [5] was “demonstrate the efficacy”.

Values taken from patent US20030170287A1, “Drug delivery systems for the prevention and treatment of vascular diseases” (priority 2002, published 2003).
